Assay results: US11319452B2, “Vapor source using solutions of precursors in tertiary amines” (President and Fellows of Harvard College, priority 2013, dated 2022)

Assays:
[1] = Solubility of amidinate precursors in dry, oxygen-free trialkylamine solvent; assay type: physicochemical; conditions: for solubility: in dry
Experimental: Another important criterion for solvents is that they dissolve a sufficient amount of precursor. Useful concentrations of the solutions are typically larger than 10 weight per cent, larger than 20 weight percent in more preferred embodiments, and larger than 40 weight percent in the most preferred embodiments.
Purification to remove oxygen, moisture and di-n-hexylamine was carried out as follows: 95 g of tri-n-hexylamine was mixed with 1 g of Na and heated to 100° C. under a N2 atmosphere for 3 hours. Then the purified tri-n-hexylamine was distilled out and stored in a glove box under a purified N2 atmosphere. A nickel precursor, bis(N,N′-di-tert-butylacetamidinato)nickel(II),
[drawing 6] was dissolved in the purified dry, oxygen-free tri-n-hexylamine.

[2] = Evaporation rate by isothermal thermogravimetric analysis (TGA); assay type: physicochemical
From the text: DLE is a non-equilibrium evaporation process, because the vapor is swept away from the surface of the liquid before it can reach the equilibrium vapor pressure. The amount of liquid vaporized is thus determined by the evaporation rate. The rate of evaporation of a material can be measured using isothermal thermogravimetric analysis (TGA). In this method, a small sample (typically about 50 milligrams) of a material is held in the pan of a microbalance while a flow of a gas, such as nitrogen, passes over the surface of the material. As vapor leaves the surface of the material, its mass decreases and the microbalance measures the mass of the remaining un-evaporated material. […] The furnace temperature was increased from 110° C. to 115° C. during the time from 160 minutes to 162 minutes, at which time the temperature had stabilized at 115° C. The many mass values measured from 162 minutes until 175 minutes form a nearly continuous thick line in FIG. 1. […]
One class of precursors widely used for ALD and CVD are metal amidinates. One example is (N,N′-di-sec-butylacetamidinato)copper(I) dimer, whose evaporation rate was also measured by the same isothermal TGA method. […]

marine organisms = conditions: cited from earlier work
chromosomes = conditions: reported in vitro; cited from earlier work
human = conditions: cited from earlier work
[3] = room temperature; cited from earlier work
[4] = in tri-n-hexylamine and in tri-n-heptylamine

Compound: bis(N,N′-diisopropylacetamidinato)cobalt(II)
- solubility (in words) ([1]; in tri-n-hexylamine): high

Compound: bis(N,N′-di-tert-butylacetamidinato)ruthenium(II)tricarbonyl
- solubility (in words) [1, 4]: moderate

Compound: CCCCCCN(CCCCCC)CCCCCC [tri-n-hexylamine]
- evaporation rate ([2]; 115° C., flow of nitrogen gas at one atmosphere): 0.346 mg min^−1 cm^−2

Compound: bis(N,N′-di-sec-butylacetamidinato)copper(I) dimer
- solubility ([1]; oxygen-free tri-n-hexylamine and in tri-n-heptylamine): about 30 weight percent
- evaporation rate ([2]; 160° C.=433 K, read from FIG. 2, neat precursor into 1 atmosphere nitrogen): about 0.8 mg cm^−2 min^−1

Compound: Cc1cccc2ccccc12 [1-methylnaphthalene]
- toxicity to marine organisms (marine organisms): highly toxic
- chromosome damage in vitro (chromosomes): cause damage to chromosomes
- effect of repeated human exposure (human): causes sensitization

Compound: bis(N,N′-diisopropylpentamidinato)manganese(II)
- solubility ([1]; oxygen-free tri-n-hexylamine): 8 weight percent

Compound: CCCCCCCCCCCC [Dodecane, n-dodecane]
- vapor pressure [3]: around 120 mTorr

Compound: tris(N,N′-diisopropylformamidinato)lanthanum(III)
- solubility (in words) [1, 4]: high

Compound: bis(N,N′-di-tert-butylacetamidinato)manganese(II)
- solubility ([1]; oxygen-free tri-n-hexylamine): 42 weight percent

Compound: bis(N,N′-diisopropylacetamidinato)tin(II)
- solubility (in words) ([1]; in tri-n-hexylamine): high

Compound: bis(N,N′-di-tert-butylacetamidinato)nickel(II)
- solubility ([1]; oxygen-free tri-n-hexylamine): 22 weight percent

Compound: tris(N,N′-diisopropylacetamidinato)yttrium(III)
- solubility (in words) [1, 4]: high
